Experimental data: PubChem BioAssay AID2060490 (Molecular Pharmacology Branch, DTP, NCI, 2025)
Several values for one entry are separate records, joined by “and”; a condition that tells them apart may be missing. Equal values may be shown once.

Tested on: 885512-296-R-J2-PDC complex spheroid viability
Assay: Anticancer human tumor 885512-296-R-J2-PDC patient-derived breast carcinoma cell line growth inhibition [GQUAD]
Conditions: for viability, T/C: stronger effect = lower value
From the text: DNA G-quadruplex Stabilizer Agents in Combinations in Complex Spheroids
A high-throughput screen of multi-cell type tumor spheroids was designed to identify active combinations of DNA G-quadruplex stabilizer agents and targeted small molecules. Complex spheroids include a stromal component modeled by human endothelial cells (HUVEC) and fibroblasts modeled by human mesenchymal stem cells (MSCs). The concentration ranges selected for each drug and investigational agent were based upon clinically achievable concentrations if the clinical Cmax of the agent was known.
Compounds. The drugs and investigational agents: pidnarulex (CX-5461; NSC782164), APTO-253 (NSC789042), BRACO-19 (NSC847499), peposertib (NSC802822), ceralasertib (NSC780249), elimusertib (NSC800525), camonsertib (NSC841442), AZD-1390 (NSC803789), olaparib (NSC753686), talazoparib (NSC767125), ART-558 (NSC835418), sotorasib (NSC818433), MRTX-1133 (NSC836407), SN-38 (NSC673596), topotecan (NSC609699), etoposide (NSC141540), doxorubicin (NSC123127), gemcitabine (NSC613327), 5-fluorouracil (NSC19893), paclitaxel (NSC125973), vemurafenib (NSC761431), panobinostat (NSC761190), R-306465 (JNJ-16241199; NSC773264), adavosertib (NSC754352), TP-3654 (NSC805149), carboplatin (NSC241240), KSQ-4279 (NSC840948), and staurosporine (NSC755774) were obtained from the National Cancer Institute (NCI) Developmental Therapeutics Program Chemical Repository (34). The FDA-approved anticancer drug set is available from the NCI Developmental Therapeutics Program. […] The stock solutions were prepared in dimethyl sulfoxide (DMSO, Sigma-Aldrich, St. Louis, MO, cat. D2650) at 800-fold the tested concentration and stored at -70 degrees C prior to their use. All drugs and investigational agents were tested over a range starting from a high concentration at or near the clinical Cmax and decreasing in half-log increments. If the clinical Cmax for an agent had not been determined, the highest concentration tested was 10 microM.
2.3 Cell Culture. All cells were maintained in an incubator at 37 degrees C and 5% CO2 with 95% humidity. The PDC lines were cultured according to standard operating procedures established by the NCI PDMR. All PDCs were thawed and cultured in Matrigel-coated flasks prepared with a working solution of 1X Ham's F-12 nutrient mix, without supplementation (Invitrogen, cat. 11765054), 100 U/mL penicillin-streptomycin (Invitrogen, cat. 15140122), and 2.5% Matrigel (Corning Inc., cat. 354248) for the first three passages. The 857933-349-R-J2-PDC line was cultured in 6C/Colon 1B media, which includes advanced DMEM/F-12 (Thermo Fisher Scientific, cat. 12634028), 10 mM HEPES (Thermo Fisher Scientific, cat. 15630080), 1X GlutaMAX supplement (Thermo Fisher Scientific, cat. 35050061), 0.1 mg/mL primocin (InvivoGen, cat. ant-pm-2), 10% defined fetal bovine serum, heat inactivated (HyClone Laboratories Inc., cat. SH30070.03HI), 50% L-WRN conditioned media (ATCC, cat. CRL-3276), 1.25 mM N-Acetyl-L-cysteine (Sigma-Aldrich, cat. A9165), 10 mM nicotinamide (Sigma-Aldrich, cat. N0636), 1X B-27 supplement (Thermo Fisher Scientific, cat. 17504044), 1X N-2 supplement (Thermo Fisher Scientific, cat. 17502048), 10 microM Y-27632 dihydrochloride (Tocris Bioscience, cat. 1254), and 50 ng/mL human EGF recombinant protein (Thermo Fisher Scientific, cat. PHG0311). The 485176-168-R4-J1-PDC line was cultured in Panc media, which includes all 6C/Colon 1B media components plus 100 ng/mL human FGF-10 (Thermo Fisher Scientific, cat. 100-26), 500 nM SB-431542 (Selleckchem, cat. S1067), and gastrin (Tocris, cat. 3006).
[…]
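Further: spheroids exposed to the compounds for one week.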
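Wherever viability, T/C is given: percent of tumor spheroid viability relative to DMSO vehicle control wells.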

In the case of `O=C(c1cc(Cc2n[nH]c(=O)c3ccccc23)ccc1F)N1CCN(C(=O)C2CC2)CC1`, the viability, T/C (compound 0.0316 µM) is reported as 99.8% and 85.3% and 97.1%, the viability, T/C (compound 0.1 µM) is reported as 117% and 107% and 96.9% and the viability, T/C (compound 0.316 µM) is reported as 112% and 116% and 95.1%. For the same compound, the viability, T/C (compound 1 µM) was 152% and 127% and 126%, the viability, T/C (compound 3.16 µM) was 144% and 122% (2×) and the viability, T/C (compound 10 µM) was 41.6% and 24.8% and 33%. For the same compound, the IC50 (curve of compound) was 8900 nM and 7180 nM and 7700 nM.
For `CC1COCCN1c1cc(-c2ccnn2C)c2ccnc(-c3ccn[nH]3)c2n1` (stereo not drawn) + Cc1[nH]c2ccc(F)cc2c1-c1nc2c3cccnc3c3ncccc3c2[nH]1, the IC50 (curve of first compound, second compound 0.0316 µM) was less than 31.6 nM, the IC50 (curve of first compound, second compound 0.1 µM) was 36 nM and the IC50 (curve of first compound, second compound 0.316 µM) was less than 31.6 nM. It also gave an IC50 (curve of first compound, second compound 1 µM) of less than 31.6 nM, an IC50 (curve of first compound, second compound 3.16 µM) of less than 31.6 nM and an IC50 (curve of first compound, second compound 10 µM) of less than 31.6 nM. The viability, T/C (second compound 0.0316 µM, first compound 0.0316 µM) was 44.6%, the viability, T/C (second compound 0.0316 µM, first compound 0.1 µM) was 7.14% and the viability, T/C (second compound 0.0316 µM, first compound 0.316 µM) was 3.23%. It also gave a viability, T/C (second compound 0.0316 µM, first compound 1 µM) of 2.97%, a viability, T/C (second compound 0.0316 µM, first compound 3.16 µM) of 4.21% and a viability, T/C (second compound 0.0316 µM, first compound 10 µM) of 7.57%. For the same compound, the viability, T/C (second compound 0.1 µM, first compound 0.0316 µM) was 55.6%, the viability, T/C (second compound 0.1 µM, first compound 0.1 µM) was 5.92% and the viability, T/C (second compound 0.1 µM, first compound 0.316 µM) was 3.53%. It also gave a viability, T/C (second compound 0.1 µM, first compound 1 µM) of 3.59%, a viability, T/C (second compound 0.1 µM, first compound 3.16 µM) of 5.52% and a viability, T/C (second compound 0.1 µM, first compound 10 µM) of 6.77%. The viability, T/C (second compound 0.316 µM, first compound 0.0316 µM) was 37.9%, the viability, T/C (second compound 0.316 µM, first compound 0.1 µM) was 3.68% and the viability, T/C (second compound 0.316 µM, first compound 0.316 µM) was 2.99%. The viability, T/C (second compound 0.316 µM, first compound 1 µM) was 2.87%, the viability, T/C (second compound 0.316 µM, first compound 3.16 µM) was 5.08% and the viability, T/C (second compound 0.316 µM, first compound 10 µM) was 7.25%. It also gave a viability, T/C (second compound 1 µM, first compound 0.0316 µM) of 5.35%, a viability, T/C (second compound 1 µM, first compound 0.1 µM) of 3.41% and a viability, T/C (second compound 1 µM, first compound 0.316 µM) of 2.46%. For the same compound, the viability, T/C (second compound 1 µM, first compound 1 µM) was 2.67%, the viability, T/C (second compound 1 µM, first compound 3.16 µM) was 5.38% and the viability, T/C (second compound 1 µM, first compound 10 µM) was 5.76%. It also gave a viability, T/C (second compound 3.16 µM, first compound 0.0316 µM) of 1.59%, a viability, T/C (second compound 3.16 µM, first compound 0.1 µM) of 1.58% and a viability, T/C (second compound 3.16 µM, first compound 0.316 µM) of 1.11%. For the same compound, the viability, T/C (second compound 3.16 µM, first compound 1 µM) was 1.8%, the viability, T/C (second compound 3.16 µM, first compound 3.16 µM) was 3.23% and the viability, T/C (second compound 3.16 µM, first compound 10 µM) was 3.81%. It also gave a viability, T/C (second compound 10 µM, first compound 0.0316 µM) of 1.17%, a viability, T/C (second compound 10 µM, first compound 0.1 µM) of 1.15% and a viability, T/C (second compound 10 µM, first compound 0.316 µM) of 1.51%. For the same compound, the viability, T/C (second compound 10 µM, first compound 1 µM) was 2.19%, the viability, T/C (second compound 10 µM, first compound 3.16 µM) was 2.68% and the viability, T/C (second compound 10 µM, first compound 10 µM) was 4.02%.
`CC(C)(O)C1CCC(Nc2ccc3ncc(-c4cccc(C(F)(F)F)c4)n3n2)CC1` (stereo not drawn) was tested, and the viability, T/C (compound 0.0316 µM) was 102% and 97.2% and 101%, the viability, T/C (compound 0.1 µM) was 93.2% and 94.8% and 101% and the viability, T/C (compound 0.316 µM) was 95.9% and 90.2% and 100%. The viability, T/C (compound 1 µM) was 89.1% and 67.6% and 76.8%, the viability, T/C (compound 3.16 µM) was 102% and 16.3% and 16.4% and the viability, T/C (compound 10 µM) was 84.3% and 28.2% and 20.7%. The IC50 (curve of compound) was > 10000 nM and 1560 nM and 1700 nM.
With `CC(C)n1c(=O)n(C)c2cnc3cc(F)c(-c4ccc(OCCCN5CCCCC5)nc4)cc3c21` the viability, T/C (compound 0.0316 µM) was 88.8% and 89% and 85.8%, the viability, T/C (compound 0.1 µM) was 97% and 84.5% and 80.4% and the viability, T/C (compound 0.316 µM) was 88% and 93.7% and 77.8%. For the same compound, the viability, T/C (compound 1 µM) was 85.8% and 90.9% and 79.7%, the viability, T/C (compound 3.16 µM) was 104% and 97.5% and 90.3% and the viability, T/C (compound 10 µM) was 100% and 105% and 104%. It also gave an IC50 (curve of compound) greater than 10000 nM.
In the case of `Cc1[nH]c2ccccc2c1CCNCc1ccc(/C=C/C(=O)NO)cc1`, the viability, T/C (compound 0.000999 µM) is reported as 108% and 90.8% and 92.3%, the viability, T/C (compound 0.00316 µM) is reported as 93.8% and 86.2% and 86.1% and the viability, T/C (compound 0.00999 µM) is reported as 96.1% and 71.2% and 73.6%. For the same compound, the viability, T/C (compound 0.0316 µM) was 112% and 42% and 57.7% and the viability, T/C (compound 0.0999 µM) was 94.9% and 25.6% and 28.9%.
